Source: the NIST ThermoML archive (doi:10.1016/j.jct.2006.07.022)
Numbers after ± are expanded uncertainties.

Columns and labels:
[1] = refractive index (Na D-line) (dimensionless); settings: 298.15 K; 101.33 kPa; Liquid; Standard Abbe refractometry
[2] = xn = mol fraction of the nth substance listed; settings: 101 kPa, Liquid

Work on `c1ccccc1` [benzene] yielded a refractive index [1] of 1.5009 ± 0.0007.

`c1ccccc1` [benzene] + CN(C)C=O showed a mass density ([2]; 293.15 K, x1 = 1) of 878.96 ± 0.33 kg/m3, a mass density ([2]; 303.15 K, x1 = 1) of 868.21 ± 0.34 kg/m3 and a mass density ([2]; 313.15 K, x1 = 1) of 857.4 ± 0.36 kg/m3. For the same compound, the mass density ([2]; 323.15 K, x1 = 1) was 846.55 ± 0.38 kg/m3, the mass density ([2]; 333.15 K, x1 = 1) was 835.66 ± 0.39 kg/m3 and the mass density ([2]; 343.15 K, x1 = 1) was 824.71 ± 0.41 kg/m3.

`CN(C)C=O` [dimethylformamide] showed a refractive index [1] of 1.4307 ± 0.0007.

`CN(C)C=O` [dimethylformamide] + CCc1ccccc1 showed a mass density ([2]; 293.15 K, x2 = 0) of 948.58 ± 0.25 kg/m3, a mass density ([2]; 303.15 K, x2 = 0) of 939.46 ± 0.26 kg/m3 and a mass density ([2]; 313.15 K, x2 = 0) of 930.12 ± 0.28 kg/m3. For the same compound, the mass density ([2]; 323.15 K, x2 = 0) was 920.55 ± 0.29 kg/m3, the mass density ([2]; 333.15 K, x2 = 0) was 910.75 ± 0.3 kg/m3 and the mass density ([2]; 343.15 K, x2 = 0) was 900.73 ± 0.32 kg/m3. It also gave a mass density ([2]; 353.15 K, x2 = 0) of 890.48 ± 0.34 kg/m3.

For `CCc1ccccc1` [ethylbenzene], the refractive index [1] was 1.4962 ± 0.0008.

For `Cc1ccccc1` [toluene], the refractive index [1] was 1.4965 ± 0.0008.

Work on `Cc1ccccc1` [toluene] + CN(C)C=O yielded a mass density ([2]; 293.15 K, x1 = 1) of 866.8 ± 0.94 kg/m3, a mass density ([2]; 303.15 K, x1 = 1) of 857.53 ± 0.94 kg/m3 and a mass density ([2]; 313.15 K, x1 = 1) of 848.23 ± 0.94 kg/m3. It also gave a mass density ([2]; 323.15 K, x1 = 1) of 838.91 ± 0.94 kg/m3, a mass density ([2]; 333.15 K, x1 = 1) of 829.55 ± 0.95 kg/m3 and a mass density ([2]; 343.15 K, x1 = 1) of 820.17 ± 0.95 kg/m3. It also gave a mass density ([2]; 353.15 K, x1 = 1) of 810.77 ± 0.95 kg/m3.
